In US9630977B2, “Cephalosporin derivatives and pharmaceutical compositions thereof” (Legochem Biosciences, Inc., priority 2011, dated 2017):
In brackets after ≈: the same amount, converted by molar mass.

Each compound was assayed on A. baumannii 49 (assay: In vitro antibacterial activity test (broth microdilution)). Conditions: Acinetobacter baumannii, 49, A. baumannii 49.
Type: cell-based
Summary of the method: (§1)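 Stocks at 10,240 ug/mL in DMSO, serially diluted in DMSO then water to final 0.0626–128 ug/mL (2.5% V/V DMSO). CLSI broth microdilution; MIC90, ug/mL.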

SMILES | MIC90
CC(C)(O/N=C(\C(=O)N[C@@H]1C(=O)N2C(C(=O)[O-])=C(/C=C/C[n+]3cnc(N)c(NC(=O)CCCN)c3)CSC12)c1nsc(N)n1)C(=O)O (some centres unmarked) [Compound 65] | 64 µg/mL (≈ 92.8 µM)
CC(C)(O/N=C(\C(=O)N[C@@H]1C(=O)N2C(C(=O)[O-])=C(/C=C/C[n+]3cnc(N)c(NCCCN)c3)CSC12)c1nsc(N)n1)C(=O)O (some centres unmarked) [Compound 56] | 32 µg/mL (≈ 48.4 µM)

What follows are compounds tested on P. aeruginosa 6065Y in the same assay as above. Conditions: Pseudomonas aeruginosa, 6065Y.
Type: cell-based
Summary of the method: as §1

SMILES | MIC90
CC(C)(O/N=C(\C(=O)N[C@@H]1C(=O)N2C(C(=O)[O-])=C(/C=C/C[n+]3cnc(N)c(NC(=O)CCCN)c3)CSC12)c1nsc(N)n1)C(=O)O (some centres unmarked) [Compound 65] | 32 µg/mL (≈ 46.4 µM)
CC(C)(O/N=C(\C(=O)N[C@@H]1C(=O)N2C(C(=O)[O-])=C(/C=C/C[n+]3cnc(N)c(NCCCN)c3)CSC12)c1nsc(N)n1)C(=O)O (some centres unmarked) [Compound 56] | 16 µg/mL (≈ 24.2 µM)

Each compound was assayed on E. cloacae β19 in the same assay as above. Conditions: Enterobacter cloacae.
Type: cell-based
Summary of the method: as §1

SMILES | MIC90
CC(C)(O/N=C(\C(=O)N[C@@H]1C(=O)N2C(C(=O)[O-])=C(/C=C/C[n+]3cnc(N)c(NC(=O)CCCN)c3)CSC12)c1nsc(N)n1)C(=O)O (some centres unmarked) [Compound 65] | 32 µg/mL (≈ 46.4 µM)
CC(C)(O/N=C(\C(=O)N[C@@H]1C(=O)N2C(C(=O)[O-])=C(/C=C/C[n+]3cnc(N)c(NCCCN)c3)CSC12)c1nsc(N)n1)C(=O)O (some centres unmarked) [Compound 56] | 4 µg/mL (≈ 6.04 µM)

The compounds below were run on M. catarrhalis 2524 in the same assay as above. Conditions: Moraxella catarrhalis, 2524.
Type: cell-based
Summary of the method: as §1

SMILES | MIC90
CC(C)(O/N=C(\C(=O)N[C@@H]1C(=O)N2C(C(=O)[O-])=C(/C=C/C[n+]3cnc(N)c(NC(=O)CCCN)c3)CSC12)c1nsc(N)n1)C(=O)O (some centres unmarked) [Compound 65] | < 0.0625 µg/mL
CC(C)(O/N=C(\C(=O)N[C@@H]1C(=O)N2C(C(=O)[O-])=C(/C=C/C[n+]3cnc(N)c(NCCCN)c3)CSC12)c1nsc(N)n1)C(=O)O (some centres unmarked) [Compound 56] | < 0.0625 µg/mL

Each compound was assayed on K. pneumoniae β9 in the same assay as above. Conditions: Klebsiella pneumoniae.
Type: cell-based
Summary of the method: as §1

SMILES | MIC90
CC(C)(O/N=C(\C(=O)N[C@@H]1C(=O)N2C(C(=O)[O-])=C(/C=C/C[n+]3cnc(N)c(NC(=O)CCCN)c3)CSC12)c1nsc(N)n1)C(=O)O (some centres unmarked) [Compound 65] | 16 µg/mL (≈ 23.2 µM)
CC(C)(O/N=C(\C(=O)N[C@@H]1C(=O)N2C(C(=O)[O-])=C(/C=C/C[n+]3cnc(N)c(NCCCN)c3)CSC12)c1nsc(N)n1)C(=O)O (some centres unmarked) [Compound 56] | 1 µg/mL (≈ 1.51 µM)

Each compound was assayed on P. aeruginosa 40 in the same assay as above. Conditions: Pseudomonas aeruginosa, 40.
Type: cell-based
Summary of the method: as §1

SMILES | MIC90
CC(C)(O/N=C(\C(=O)N[C@@H]1C(=O)N2C(C(=O)[O-])=C(/C=C/C[n+]3cnc(N)c(NC(=O)CCCN)c3)CSC12)c1nsc(N)n1)C(=O)O (some centres unmarked) [Compound 65] | 4 µg/mL (≈ 5.8 µM)
CC(C)(O/N=C(\C(=O)N[C@@H]1C(=O)N2C(C(=O)[O-])=C(/C=C/C[n+]3cnc(N)c(NCCCN)c3)CSC12)c1nsc(N)n1)C(=O)O (some centres unmarked) [Compound 56] | 8 µg/mL (≈ 12.1 µM)

Each compound was assayed on E. coli AG100 in the same assay as above. Conditions: Escherichia coli, AG100.
Type: cell-based
Summary of the method: as §1

SMILES | MIC90
CC(C)(O/N=C(\C(=O)N[C@@H]1C(=O)N2C(C(=O)[O-])=C(/C=C/C[n+]3cnc(N)c(NC(=O)CCCN)c3)CSC12)c1nsc(N)n1)C(=O)O (some centres unmarked) [Compound 65] | < 0.0625 µg/mL
CC(C)(O/N=C(\C(=O)N[C@@H]1C(=O)N2C(C(=O)[O-])=C(/C=C/C[n+]3cnc(N)c(NCCCN)c3)CSC12)c1nsc(N)n1)C(=O)O (some centres unmarked) [Compound 56] | 0.5 µg/mL (≈ 0.756 µM)

Each compound was assayed on P. aeruginosa 37 in the same assay as above. Conditions: Pseudomonas aeruginosa, 37, P. aeruginosa 37.
Type: cell-based
Summary of the method: as §1

SMILES | MIC90
CC(C)(O/N=C(\C(=O)N[C@@H]1C(=O)N2C(C(=O)[O-])=C(/C=C/C[n+]3cnc(N)c(NC(=O)CCCN)c3)CSC12)c1nsc(N)n1)C(=O)O (some centres unmarked) [Compound 65] | 32 µg/mL (≈ 46.4 µM)
CC(C)(O/N=C(\C(=O)N[C@@H]1C(=O)N2C(C(=O)[O-])=C(/C=C/C[n+]3cnc(N)c(NCCCN)c3)CSC12)c1nsc(N)n1)C(=O)O (some centres unmarked) [Compound 56] | 8 µg/mL (≈ 12.1 µM)

What follows are compounds tested on K. pneumoniae 2011E in the same assay as above. Conditions: Klebsiella pneumoniae, 2011E.
Type: cell-based
Summary of the method: as §1

SMILES | MIC90
CC(C)(O/N=C(\C(=O)N[C@@H]1C(=O)N2C(C(=O)[O-])=C(/C=C/C[n+]3cnc(N)c(NC(=O)CCCN)c3)CSC12)c1nsc(N)n1)C(=O)O (some centres unmarked) [Compound 65] | 0.25 µg/mL (≈ 0.362 µM)
CC(C)(O/N=C(\C(=O)N[C@@H]1C(=O)N2C(C(=O)[O-])=C(/C=C/C[n+]3cnc(N)c(NCCCN)c3)CSC12)c1nsc(N)n1)C(=O)O (some centres unmarked) [Compound 56] | 2 µg/mL (≈ 3.02 µM)

Each compound was assayed on K. pneumoniae β13 in the same assay as above. Conditions: Klebsiella pneumoniae.
Type: cell-based
Summary of the method: as §1

SMILES | MIC90
CC(C)(O/N=C(\C(=O)N[C@@H]1C(=O)N2C(C(=O)[O-])=C(/C=C/C[n+]3cnc(N)c(NC(=O)CCCN)c3)CSC12)c1nsc(N)n1)C(=O)O (some centres unmarked) [Compound 65] | 2 µg/mL (≈ 2.9 µM)
CC(C)(O/N=C(\C(=O)N[C@@H]1C(=O)N2C(C(=O)[O-])=C(/C=C/C[n+]3cnc(N)c(NCCCN)c3)CSC12)c1nsc(N)n1)C(=O)O (some centres unmarked) [Compound 56] | 1 µg/mL (≈ 1.51 µM)

The compounds below were run on K. pneumoniae β11 in the same assay as above. Conditions: Klebsiella pneumoniae.
Type: cell-based
Summary of the method: as §1

SMILES | MIC90
CC(C)(O/N=C(\C(=O)N[C@@H]1C(=O)N2C(C(=O)[O-])=C(/C=C/C[n+]3cnc(N)c(NC(=O)CCCN)c3)CSC12)c1nsc(N)n1)C(=O)O (some centres unmarked) [Compound 65] | > 128 µg/mL
CC(C)(O/N=C(\C(=O)N[C@@H]1C(=O)N2C(C(=O)[O-])=C(/C=C/C[n+]3cnc(N)c(NCCCN)c3)CSC12)c1nsc(N)n1)C(=O)O (some centres unmarked) [Compound 56] | 2 µg/mL (≈ 3.02 µM)

What follows are compounds tested on A. baumannii 52 in the same assay as above. Conditions: Acinetobacter baumannii, 52.
Type: cell-based
Summary of the method: as §1

SMILES | MIC90
CC(C)(O/N=C(\C(=O)N[C@@H]1C(=O)N2C(C(=O)[O-])=C(/C=C/C[n+]3cnc(N)c(NC(=O)CCCN)c3)CSC12)c1nsc(N)n1)C(=O)O (some centres unmarked) [Compound 65] | 64 µg/mL (≈ 92.8 µM)
CC(C)(O/N=C(\C(=O)N[C@@H]1C(=O)N2C(C(=O)[O-])=C(/C=C/C[n+]3cnc(N)c(NCCCN)c3)CSC12)c1nsc(N)n1)C(=O)O (some centres unmarked) [Compound 56] | 16 µg/mL (≈ 24.2 µM)

The compounds below were run on P. aeruginosa 1912E in the same assay as above. Conditions: Pseudomonas aeruginosa, 1912E.
Type: cell-based
Summary of the method: as §1

SMILES | MIC90
CC(C)(O/N=C(\C(=O)N[C@@H]1C(=O)N2C(C(=O)[O-])=C(/C=C/C[n+]3cnc(N)c(NC(=O)CCCN)c3)CSC12)c1nsc(N)n1)C(=O)O (some centres unmarked) [Compound 65] | 2 µg/mL (≈ 2.9 µM)
CC(C)(O/N=C(\C(=O)N[C@@H]1C(=O)N2C(C(=O)[O-])=C(/C=C/C[n+]3cnc(N)c(NCCCN)c3)CSC12)c1nsc(N)n1)C(=O)O (some centres unmarked) [Compound 56] | 2 µg/mL (≈ 3.02 µM)

The compounds below were run on P. aeruginosa 43 in the same assay as above. Conditions: Pseudomonas aeruginosa, 43.
Type: cell-based
Summary of the method: as §1

SMILES | MIC90
CC(C)(O/N=C(\C(=O)N[C@@H]1C(=O)N2C(C(=O)[O-])=C(/C=C/C[n+]3cnc(N)c(NC(=O)CCCN)c3)CSC12)c1nsc(N)n1)C(=O)O (some centres unmarked) [Compound 65] | > 128 µg/mL
CC(C)(O/N=C(\C(=O)N[C@@H]1C(=O)N2C(C(=O)[O-])=C(/C=C/C[n+]3cnc(N)c(NCCCN)c3)CSC12)c1nsc(N)n1)C(=O)O (some centres unmarked) [Compound 56] | 64 µg/mL (≈ 96.7 µM)

The compounds below were run on K. pneumoniae β10 in the same assay as above. Conditions: Klebsiella pneumoniae.
Type: cell-based
Summary of the method: as §1

SMILES | MIC90
CC(C)(O/N=C(\C(=O)N[C@@H]1C(=O)N2C(C(=O)[O-])=C(/C=C/C[n+]3cnc(N)c(NC(=O)CCCN)c3)CSC12)c1nsc(N)n1)C(=O)O (some centres unmarked) [Compound 65] | 1 µg/mL (≈ 1.45 µM)
CC(C)(O/N=C(\C(=O)N[C@@H]1C(=O)N2C(C(=O)[O-])=C(/C=C/C[n+]3cnc(N)c(NCCCN)c3)CSC12)c1nsc(N)n1)C(=O)O (some centres unmarked) [Compound 56] | 1 µg/mL (≈ 1.51 µM)

These compounds were tested on K. pneumoniae β14 in the same assay as above. Conditions: Klebsiella pneumoniae.
Type: cell-based
Summary of the method: as §1

SMILES | MIC90
CC(C)(O/N=C(\C(=O)N[C@@H]1C(=O)N2C(C(=O)[O-])=C(/C=C/C[n+]3cnc(N)c(NC(=O)CCCN)c3)CSC12)c1nsc(N)n1)C(=O)O (some centres unmarked) [Compound 65] | 2 µg/mL (≈ 2.9 µM)
CC(C)(O/N=C(\C(=O)N[C@@H]1C(=O)N2C(C(=O)[O-])=C(/C=C/C[n+]3cnc(N)c(NCCCN)c3)CSC12)c1nsc(N)n1)C(=O)O (some centres unmarked) [Compound 56] | 2 µg/mL (≈ 3.02 µM)

The compounds below were run on E. coli β4 in the same assay as above. Conditions: Escherichia coli.
Type: cell-based
Summary of the method: as §1

SMILES | MIC90
CC(C)(O/N=C(\C(=O)N[C@@H]1C(=O)N2C(C(=O)[O-])=C(/C=C/C[n+]3cnc(N)c(NC(=O)CCCN)c3)CSC12)c1nsc(N)n1)C(=O)O (some centres unmarked) [Compound 65] | 0.125 µg/mL (≈ 0.181 µM)
CC(C)(O/N=C(\C(=O)N[C@@H]1C(=O)N2C(C(=O)[O-])=C(/C=C/C[n+]3cnc(N)c(NCCCN)c3)CSC12)c1nsc(N)n1)C(=O)O (some centres unmarked) [Compound 56] | 1 µg/mL (≈ 1.51 µM)

The compounds below were run on A. calcoaceticus ATCC15473 in the same assay as above. Conditions: Acinetobacter calcoaceticus, ATCC15473, A. calcoaceticus ATCC15473.
Type: cell-based
Summary of the method: as §1

SMILES | MIC90
CC(C)(O/N=C(\C(=O)N[C@@H]1C(=O)N2C(C(=O)[O-])=C(/C=C/C[n+]3cnc(N)c(NC(=O)CCCN)c3)CSC12)c1nsc(N)n1)C(=O)O (some centres unmarked) [Compound 65] | 0.5 µg/mL (≈ 0.725 µM)
CC(C)(O/N=C(\C(=O)N[C@@H]1C(=O)N2C(C(=O)[O-])=C(/C=C/C[n+]3cnc(N)c(NCCCN)c3)CSC12)c1nsc(N)n1)C(=O)O (some centres unmarked) [Compound 56] | 1 µg/mL (≈ 1.51 µM)

Each compound was assayed on A. baumannii 46 in the same assay as above. Conditions: Acinetobacter baumannii, 46, A. baumannii 46.
Type: cell-based
Summary of the method: as §1

SMILES | MIC90
CC(C)(O/N=C(\C(=O)N[C@@H]1C(=O)N2C(C(=O)[O-])=C(/C=C/C[n+]3cnc(N)c(NC(=O)CCCN)c3)CSC12)c1nsc(N)n1)C(=O)O (some centres unmarked) [Compound 65] | 64 µg/mL (≈ 92.8 µM)
CC(C)(O/N=C(\C(=O)N[C@@H]1C(=O)N2C(C(=O)[O-])=C(/C=C/C[n+]3cnc(N)c(NCCCN)c3)CSC12)c1nsc(N)n1)C(=O)O (some centres unmarked) [Compound 56] | 4 µg/mL (≈ 6.04 µM)
